# Measurements: article PMC9905731, “PIN1 and PIN4 inhibition via parvulin impeders Juglone, PiB, ATRA, 6,7,4′-THIF, KPT6566, and EGCG thwarted hepatitis B virus replication” (Frontiers in Microbiology, 2023)
# Tested on: HBV cccDNA
# Assay: Chromatin immunoprecipitation (ChIP) in HBV-infected HepG2-hNTCP-C9-PIN4 KD cells
# Assay type: cell-based, hepatitis B virus
# Conditions: 20 μM Juglone or PiB, 30 μM ATRA, 6,7,4′-THIF or KPT6566, 40 μM EGCG, vs solvent
# Method: Chromatin immunoprecipitation (ChIP) was performed in HBV-infected HepG2-hNTCP-C9 PIN1 or PIN4 KD cells to determine the comparative effects of these parvulins on cccDNA (Figure 11D). The chromatins were prepared and immunoprecipitated with IgG or anti-PIN1, HBc, PIN4, acetylated H3 (anti-AcH3), RNA polymerase-II (anti-RNA Pol-II), and histone H3 antibodies and furthermore analyzed by semiquantitative PCR (GeneAmp PCR 2700, Applied Biosystems; [Bichko et al., 1985]; [Saeed et al., 2019], [2021]; [Piracha et al., 2020]). In contrast to endogenous PIN1, the endogenous PIN4 was recruited to HBV cccDNA. Of note, upon PIN1 KD, the recruitment of HBc protein to the cccDNA remains unchanged.
# (A–F) HepG2-hNTCP-C9-PIN4 KD cells were mock-infected (lane 1) or HBV infected (lanes 2–3) and treated with solvent (lane 2), or parvulin inhibitors (A) 20 μM Juglone, (B) 20 μM PiB, (C) 30 μM ATRA, (D) 30 μM 6,7,4′-THIF, (E) 30 μM KPT6566, and (F) 40 μM EGCG. The chromatin solutions and ChIP were performed in HBV-infected HepG2-hNTCP-C9-PIN4 KD cells, as described in the “Material and Methods” section and were subjected to immunoprecipitation with normal rabbit polyclonal IgG, anti-PIN1, anti-PIN4, anti-RNA Pol II, anti-acetyl H3, or anti-H3 antibodies. The immunoprecipitated chromatins were analyzed by PCR. The presented data are representative of three independent experiments.
# HBV cccDNA synthesis was examined using the protein-free Hirt cccDNA extraction method. Briefly, HBV-infected PIN1 or PIN4 KD cells at approximately 100% confluency were incubated for 10 days, lysed with 10 mM EDTA and 10 mM Tris–HCl [pH 7.5] containing 0.6% SDS-TE buffer, treated for 16 h by adding 5 M NaCl to the final concentration of 1 M, and precipitated by centrifugation for 30 min at 14,500 × g. The supernatants were subjected to multiple phenol extractions (two times) followed by cccDNA extraction via phenol/chloroform. The supernatant containing cccDNA was precipitated by ethanol and furthermore analyzed by Southern blotting. The HBV cccDNA ChIP was performed using cccDNA-specific primers and analyzed by PCR (GeneAmp 2,700, Applied Biosystems), as described previously ([Bichko et al., 1985]; [Piracha et al., 2018], [2020]; [Saeed et al., 2019], [2021]). From the clinical specimens, HBV cccDNA levels were examined, as described previously ([Zhang et al., 2017]), using 251F 5′-GAC TYG TGG TGG ACT TCT C-3′ and 1190R 5′-TCA GCA AAY ACT YGG CA-3′ set of primers.
row,SMILES,recruitments of endogenous PIN4 and HBc onto HBV cccDNA
1,"O=c1c(-c2ccc(O)cc2)coc2cc(O)c(O)cc12 [6,7,4′-THIF, 6,7-dihydroxy-3-(4-hydroxyphenyl)-4H-chromen-4-one]",reduced
2,"CC1=C(/C=C/C(C)=C/C=C/C(C)=C/C(=O)O)C(C)(C)CCC1 [ATRA, All-trans-retinoic acid]",reduced
3,"O=C(O[C@@H]1Cc2c(O)cc(O)cc2O[C@@H]1c1cc(O)c(O)c(O)c1)c1cc(O)c(O)c(O)c1 [EGCG, Epigallocatechin gallate]",reduced
4,"O=C1C=CC(=O)c2c(O)cccc21 [Juglone, 5-hydroxyl-1,4-naphthoquinone]",reduced
5,"CC(C)(C)c1ccc(S(=O)(=O)N=C2C=C(SCC(=O)O)C(=O)c3ccccc32)cc1 [KPT6566, 2-[[4-[[[4-(1,1-dimethylethyl)phenyl]sulfonyl]imino]-1,4-dihydro-1-oxo-2-naphthalenyl]thio] acetic acid]",reduced
6,"CCOC(=O)CN1C(=O)c2ccc3c4c(ccc(c24)C1=O)C(=O)N(CC(=O)OCC)C3=O [PiB, 1,3,6,8-tetrahydro-1,3,6,8-tetraoxo-benzo [lmn][3,8] phenanthroline-2,7-diacetic acid, 2,7-diethyl ester]",reduced
